Reference: US12030878B2 (BRISTOL-MYERS SQUIBB COMPANY, priority 2017, dated 2024)

How the values were obtained:
Assay type in all cases: cell-based
[1] = target: T1, human TLR8 (Homo sapiens, UniProt Q9NR97); assay: TLR8 inhibition reporter assay (HEK-Blue SEAP); details: HEK-Blue cells overexpressing human TLR8, stimulated with R848 15.9 μM, 22 hour incubation
T1 construct: host or cells: HEK-Blue cells
T1 sequence (Q9NR97 27-1041): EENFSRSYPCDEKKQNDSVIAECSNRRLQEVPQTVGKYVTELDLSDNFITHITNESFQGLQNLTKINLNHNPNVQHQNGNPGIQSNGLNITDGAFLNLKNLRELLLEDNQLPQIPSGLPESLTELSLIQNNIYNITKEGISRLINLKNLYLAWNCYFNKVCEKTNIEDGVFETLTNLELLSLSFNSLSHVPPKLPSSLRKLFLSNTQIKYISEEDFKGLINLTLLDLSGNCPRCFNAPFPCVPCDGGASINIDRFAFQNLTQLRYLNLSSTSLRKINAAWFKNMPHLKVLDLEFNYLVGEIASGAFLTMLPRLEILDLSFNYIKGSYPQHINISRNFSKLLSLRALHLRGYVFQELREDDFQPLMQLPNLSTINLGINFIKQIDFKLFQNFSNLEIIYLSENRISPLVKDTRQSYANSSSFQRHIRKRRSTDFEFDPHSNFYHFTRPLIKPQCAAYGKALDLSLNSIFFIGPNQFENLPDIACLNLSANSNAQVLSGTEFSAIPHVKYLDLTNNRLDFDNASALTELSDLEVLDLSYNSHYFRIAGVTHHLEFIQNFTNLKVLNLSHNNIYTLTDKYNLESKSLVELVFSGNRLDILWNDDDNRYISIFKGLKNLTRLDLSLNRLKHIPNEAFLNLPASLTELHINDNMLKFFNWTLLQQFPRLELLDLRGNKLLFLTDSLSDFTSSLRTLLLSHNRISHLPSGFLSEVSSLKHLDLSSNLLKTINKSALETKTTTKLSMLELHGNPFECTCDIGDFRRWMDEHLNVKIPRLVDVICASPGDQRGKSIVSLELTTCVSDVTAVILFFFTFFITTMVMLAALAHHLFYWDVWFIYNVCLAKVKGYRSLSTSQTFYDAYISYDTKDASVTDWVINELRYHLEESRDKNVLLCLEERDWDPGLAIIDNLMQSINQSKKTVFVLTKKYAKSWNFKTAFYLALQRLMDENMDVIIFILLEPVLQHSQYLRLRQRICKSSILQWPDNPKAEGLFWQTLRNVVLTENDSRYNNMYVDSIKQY
Method in brief: (§1)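 Stimulation followed a 30 min room-temperature compound exposure (final 0.05 nM-50 μM): TLR7 cells with 7.5 μM gardiquimod, TLR8 with 15.9 μM R848, TLR9 with 5 nM ODN2006. After 22 h at 37 °C, secreted alkaline phosphatase was detected colorimetrically and inhibition calculated against DMSO and known-inhibitor controls.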

[2] = target: T2, human TLR9 (Homo sapiens, UniProt Q9NR96); assay: TLR9 inhibition reporter assay (HEK-Blue SEAP); details: HEK-Blue cells overexpressing human TLR9, stimulated with ODN2006 5 nM, 22 hour incubation
T2 construct: host or cells: HEK-Blue cells
T2 sequence (Q9NR96 26-1032): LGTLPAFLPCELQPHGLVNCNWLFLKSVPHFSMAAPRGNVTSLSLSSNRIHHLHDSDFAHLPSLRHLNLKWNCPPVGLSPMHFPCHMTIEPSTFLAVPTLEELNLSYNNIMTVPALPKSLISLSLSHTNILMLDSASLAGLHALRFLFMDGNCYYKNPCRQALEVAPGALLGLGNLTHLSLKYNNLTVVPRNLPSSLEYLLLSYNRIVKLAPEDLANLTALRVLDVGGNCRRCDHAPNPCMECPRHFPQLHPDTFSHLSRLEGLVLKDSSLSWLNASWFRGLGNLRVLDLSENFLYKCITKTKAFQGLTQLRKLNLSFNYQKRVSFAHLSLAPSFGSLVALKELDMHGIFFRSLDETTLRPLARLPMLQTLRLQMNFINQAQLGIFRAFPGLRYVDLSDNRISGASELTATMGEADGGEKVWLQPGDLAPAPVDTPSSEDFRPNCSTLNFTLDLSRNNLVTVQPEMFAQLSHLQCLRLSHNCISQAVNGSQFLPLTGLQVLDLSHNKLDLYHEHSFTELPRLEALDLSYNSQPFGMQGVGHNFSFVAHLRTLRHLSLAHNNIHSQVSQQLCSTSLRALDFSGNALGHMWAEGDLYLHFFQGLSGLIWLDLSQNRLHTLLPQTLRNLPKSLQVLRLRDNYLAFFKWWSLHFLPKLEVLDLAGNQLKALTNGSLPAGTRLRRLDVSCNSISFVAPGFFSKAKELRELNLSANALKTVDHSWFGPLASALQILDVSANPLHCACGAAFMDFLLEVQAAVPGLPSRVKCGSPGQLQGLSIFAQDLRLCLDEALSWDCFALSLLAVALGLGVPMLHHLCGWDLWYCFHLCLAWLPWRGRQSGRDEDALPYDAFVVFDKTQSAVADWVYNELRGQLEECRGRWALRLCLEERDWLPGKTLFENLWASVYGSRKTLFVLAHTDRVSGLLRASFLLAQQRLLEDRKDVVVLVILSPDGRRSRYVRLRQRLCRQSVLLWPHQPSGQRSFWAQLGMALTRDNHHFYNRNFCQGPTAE
Method in brief: as §1

[3] = target: T3, human TLR7 (Homo sapiens, UniProt Q9NYK1); assay: TLR7 inhibition reporter assay (HEK-Blue SEAP); details: HEK-Blue cells overexpressing human TLR7, stimulated with gardiquimod 7.5 μM, 22 hour incubation
T3 construct: host or cells: HEK-Blue cells
T3 sequence (Q9NYK1 27-1049): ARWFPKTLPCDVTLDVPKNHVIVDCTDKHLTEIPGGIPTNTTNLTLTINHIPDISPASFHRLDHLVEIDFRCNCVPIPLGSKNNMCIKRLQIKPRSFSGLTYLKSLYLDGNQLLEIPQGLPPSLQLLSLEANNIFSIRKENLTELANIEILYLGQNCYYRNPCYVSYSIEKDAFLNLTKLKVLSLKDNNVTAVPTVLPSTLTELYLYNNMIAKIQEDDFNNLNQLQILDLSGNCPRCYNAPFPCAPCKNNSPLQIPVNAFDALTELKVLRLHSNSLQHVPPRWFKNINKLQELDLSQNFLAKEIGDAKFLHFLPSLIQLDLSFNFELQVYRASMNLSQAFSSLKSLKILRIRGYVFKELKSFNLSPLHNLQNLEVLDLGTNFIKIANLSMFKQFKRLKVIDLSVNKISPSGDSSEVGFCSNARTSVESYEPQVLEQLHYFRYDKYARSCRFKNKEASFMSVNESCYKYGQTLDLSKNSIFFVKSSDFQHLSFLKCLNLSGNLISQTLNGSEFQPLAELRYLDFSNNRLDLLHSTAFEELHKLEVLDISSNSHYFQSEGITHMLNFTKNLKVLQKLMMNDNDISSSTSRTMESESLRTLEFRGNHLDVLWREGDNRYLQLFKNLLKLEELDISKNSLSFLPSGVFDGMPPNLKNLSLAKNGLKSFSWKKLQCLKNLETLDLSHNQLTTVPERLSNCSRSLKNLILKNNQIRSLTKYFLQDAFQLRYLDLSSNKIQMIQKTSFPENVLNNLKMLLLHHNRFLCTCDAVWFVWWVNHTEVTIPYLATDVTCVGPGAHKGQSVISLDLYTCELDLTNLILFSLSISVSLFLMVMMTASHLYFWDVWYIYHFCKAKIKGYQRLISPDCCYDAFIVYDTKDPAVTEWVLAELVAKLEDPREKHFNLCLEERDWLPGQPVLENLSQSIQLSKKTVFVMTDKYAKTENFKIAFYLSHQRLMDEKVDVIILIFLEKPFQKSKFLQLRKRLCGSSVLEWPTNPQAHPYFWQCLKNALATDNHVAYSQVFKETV
Method in brief: as §1

## Cc1cc(-c2[nH]c3ccc(OCC(=O)N4CCC5(CCNCC5)C4)cc3c2C(C)C)ccn1 [Example 144, 2-((3-isopropyl-2-(2-methylpyridin-4-yl)-1H-indol-5-yl)oxy)-1-(2,8-diazaspiro[4.5]decan-2-yl)ethan-1-one]
[1]
  IC50: 176 nM
[2]
  IC50: 296 nM
[3]
  IC50: 917 nM

## Cc1cc(-c2[nH]c3ccc(OC4CCN(C(C)C)CC4)cc3c2C(C)C)cn2ncnc12 [Example 47, 6-(3-isopropyl-5-((1-isopropylpiperidin-4-yl)oxy)-1H-indol-2-yl)-8-methyl-[1,2,4]triazolo[1,5-a]pyridine]
[1]
  IC50: 1 nM
[2]
  IC50: 2480 nM
[3]
  IC50: 0.8 nM

## Cc1cc(-c2[nH]c3ccc(OC4CCN(CC(=O)O)CC4)cc3c2C(C)C)cc(C)n1 [Example 197, 2-(4-((2-(2,6-dimethylpyridin-4-yl)-3-isopropyl-1H-indol-5-yl)oxy)piperidin-1-yl)acetic acid]
[1]
  IC50: 462 nM
[2]
  IC50: 25200 nM
[3]
  IC50: 679 nM

## Cc1c(-c2[nH]c3ccc(OCC4CCN(C5COC5)CC4)cc3c2C(C)C)cn(C)c(=O)c1C [Example 51, 5-(3-isopropyl-5-((1-(oxetan-3-yl)piperidin-4-yl)methoxy)-1H-indol-2-yl)-1,3,4-trimethylpyridin-2(1H)-one]
[1]
  IC50: 2.6 nM
[2]
  IC50: > 50000 nM
[3]
  IC50: 19.3 nM

## COc1ccc(-c2[nH]c3ccc(OCC(=O)NC[C@@H](F)C(C)(C)O)cc3c2C(C)C)cc1OC [Example 154, (R)-2-((2-(3,4-dimethoxyphenyl)-3-isopropyl-1H-indol-5-yl)oxy)-N-(2-fluoro-3-hydroxy-3-methylbutyl) acetamide]
[1]
  IC50: 1890 nM
[2]
  IC50: > 50000 nM
[3]
  IC50: 899 nM

## Cc1cc(-c2[nH]c3ccc(OC4CCN(CCCO)CC4)cc3c2C(C)C)cc(C)n1 [Example 72, 3-(4-((2-(2,6-dimethylpyridin-4-yl)-3-isopropyl-1H-indol-5-yl)oxy)piperidin-1-yl)propan-1-ol]
[1]
  IC50: 1.3 nM
[2]
  IC50: 528 nM
[3]
  IC50: 3.8 nM

## Cc1cc(-c2[nH]c3ccc(OCC(=O)N4CC5CN(C)CC5C4)cc3c2C(C)C)ccn1 (stereo not drawn) [Example 149, 2-((3-isopropyl-2-(2-methylpyridin-4-yl)-1H-indol-5-yl)oxy)-1-(5-methylhexahydropyrrolo[3,4-c]pyrrol-2(1H)-yl)ethan-1-one]
[1]
  IC50: 23.8 nM
[2]
  IC50: 410 nM
[3]
  IC50: 119 nM

## COc1cc(-c2[nH]c3ccc(OC4CCN(C(C)C)CC4)cc3c2C(C)C)cn2ncnc12 [Example 66, 6-(3-isopropyl-5-((1-isopropylpiperidin-4-yl)oxy)-1H-indol-2-yl)-8-methoxy-[1,2,4]triazolo[1,5-a]pyridine]
[1]
  IC50: 0.7 nM
[2]
  IC50: 1150 nM
[3]
  IC50: 0.8 nM

## COc1ccc(-c2[nH]c3ccc(OCC(=O)N[C@H]4CCNC4)cc3c2C(C)C)cc1OC [Example 134, (S)-2-((2-(3,4-dimethoxyphenyl)-3-isopropyl-1H-indol-5-yl)oxy)-N-(pyrrolidin-3-yl)acetamide]
[1]
  IC50: 11.6 nM
[2]
  IC50: 359 nM
[3]
  IC50: 98 nM

## Cc1cc(-c2[nH]c3ccc(OCC4CCN(C(=O)CN(C)C)CC4)cc3c2C(C)C)cc(C)n1 [Example 96, 2-(dimethylamino)-1-(4-(((2-(2,6-dimethylpyridin-4-yl)-3-isopropyl-1H-indol-5-yl)oxy)methyl)piperidin-1-yl)ethan-1-one]
[1]
  IC50: 9.8 nM
[2]
  IC50: 346 nM
[3]
  IC50: 2.6 nM

## Cc1cc(-c2[nH]c3ccc(OC4CCN(C)CC4)cc3c2C(C)C)cc(C)n1 [Example 29, 2-(2,6-dimethylpyridin-4-yl)-3-isopropyl-5-((1-methylpiperidin-4-yl)oxy)-1H-indole]
[1]
  IC50: 0.7 nM
[2]
  IC50: 379 nM
[3]
  IC50: 1.3 nM

## Cc1cc(-c2[nH]c3ccc(OC4CCN(C(=O)CN(C)C)CC4)cc3c2C(C)C)cc(C)n1 [Example 95, 2-(dimethylamino)-1-(4-((2-(2,6-dimethylpyridin-4-yl)-3-isopropyl-1H-indol-5-yl)oxy)piperidin-1-yl)ethanone]
[1]
  IC50: 10.4 nM
[2]
  IC50: 419 nM
[3]
  IC50: 0.5 nM

## Cc1cc(-c2[nH]c3ccc(OCC4CCN(C)CC4)cc3c2C(C)C)cn(C)c1=O [Example 34, 5-(3-isopropyl-5-((1-methylpiperidin-4-yl)methoxy)-1H-indol-2-yl)-1,3-dimethylpyridin-2(1H)-one]
[1]
  IC50: 1.6 nM
[2]
  IC50: 5550 nM
[3]
  IC50: 2.4 nM

## Cc1c(-c2[nH]c3ccc(OCC4CN(C(=O)CN(C)C)C4)cc3c2C(C)C)cn2cnnc2c1C [Example 108, 1-(3-(((2-(7,8-dimethyl-[1,2,4]triazolo[4,3-a]pyridin-6-yl)-3-isopropyl-1H-indol-5-yl)oxy)methyl)azetidin-1-yl)-2-(dimethylamino) ethan-1-one]
[1]
  IC50: 124 nM
[2]
  IC50: 852 nM
[3]
  IC50: 14.6 nM
